Results published in ChEMBL document CHEMBL4477222, “Discovery of Novel Thiophene-Based, Thumb Pocket 2 Allosteric Inhibitors of the Hepatitis C NS5B Polymerase with Improved Potency and Physicochemical Profiles” (J Med Chem, 2016).

Tests used:
[1] = Cytotoxicity against human Huh7ET cells assessed as reduction in cell viability after 4 days; type: cell-based
[2] = Cytotoxicity against human W11.8 cells assessed as reduction in cell viability after 4 days; type: cell-based
[3] = target: RNA-directed RNA polymerase (Hepacivirus hominis, UniProt O39930, M423V); assay: Inhibition of HCV genotype 1a NS5B M423V mutant; design: species or system Hepatitis C virus subtype 1a
[4] = target: RNA-directed RNA polymerase (Hepacivirus hominis, UniProt O39930, M423T); assay: Inhibition of HCV genotype 1a NS5B M423T mutant; design: species or system Hepatitis C virus subtype 1a
Nonstructural protein 5A = Nonstructural protein 5A (Hepatitis C virus, UniProt Q5L478); assay: Inhibition of HCV genotype 2a NS5A; design: species or system Hepatitis C virus subtype 2a
Hepatitis C virus = assay: Antiviral activity against HCV genotype 1 infected in human assessed as log10 reduction in viral load at 500 mg[…] bid for 3 days measured on day 4 post treatment; type: functional, Hepacivirus hominis
[5] = target: RNA-directed RNA polymerase (Hepacivirus hominis, UniProt O39930, L419I); assay: Inhibition of HCV genotype 1a NS5B L419I mutant; design: species or system Hepatitis C virus subtype 1a
[6] = target: RNA-directed RNA polymerase (Hepacivirus hominis, UniProt O39930, M423I); assay: Inhibition of HCV genotype 1a NS5B M423I mutant; design: species or system Hepatitis C virus subtype 1a
[7] = target: RNA-directed RNA polymerase (Hepacivirus hominis, UniProt O39930, L419M); assay: Inhibition of HCV genotype 1a NS5B L419M mutant; design: species or system Hepatitis C virus subtype 1a
[8] = target: Nonstructural protein 5A (Hepatitis C virus) (UniProt Q5L478); assay: Ratio of EC50 for HCV genotype 1b NS5A infected in human l389lucubi- neo/NS3-375.1-containing Huh7ET cells in presence of 40% human serum to EC50 for HCV genotype 1b NS5A infected in human l389lucubi- neo/NS3-375.1-containing Huh7ET cells; details: Hepatitis C virus subtype 1b

| Structure (SMILES) | CC50 at 96 h [1] [µM] | CC50 at 96 h [2] [µM] | also measured |
| --- | --- | --- | --- |
| CN(C)CCN(C)C(=O)CN(c1cc(C#CC(C)(C)C)sc1C(=O)O)C(=O)[C@H]1CC[C@H](C)CC1 | > 20 | > 20 | – |
| CC[C@@H](C(=O)N(C)C)N(c1cc(C#CC(C)(C)C)sc1C(=O)O)C(=O)[C@H]1CC[C@H](C)CC1 | > 20 | > 20 | – |
| CC(C)(C)C#Cc1cc(N(C(=O)[C@H]2CC[C@H](C)CC2)[C@H]2CC[C@H](O)CC2)c(C(=O)O)s1 [LOMIBUVIR] | > 20 | > 20 | EC50 [3]: 0.065 µM; EC50 [4]: 0.31 µM; EC50 (Nonstructural protein 5A): 8.1 µM; FC (Hepatitis C virus): 3.4; EC50 [5]: 0.32 µM; EC50 [6]: 0.03 µM; EC50 [7]: 0.32 µM; Ratio EC50 [8]: 10 to 20 |
| CCN(CC)C(=O)CN(c1cc(C#CC(C)(C)C)sc1C(=O)O)C(=O)[C@H]1CC[C@H](C)CC1 | > 20 | > 20 | – |
| CC(C)(C)C#Cc1cc(N(CC(=O)N2CC(O)C2)C(=O)[C@H]2CC[C@H](C)CC2)c(C(=O)O)s1 | > 20 | > 20 | – |
| CN(C)C(=O)[C@H](CO)N(c1cc(C#CC(C)(C)C)sc1C(=O)O)C(=O)[C@H]1CC[C@H](C)CC1 | > 20 | > 20 | – |
| CCC[C@@H](C(=O)N(C)C)N(c1cc(C#CC(C)(C)C)sc1C(=O)O)C(=O)[C@H]1CC[C@H](C)CC1 | > 20 | > 20 | – |
| C[C@@H](C(=O)N(C)C)N(c1cc(C#CC(C)(C)C)sc1C(=O)O)C(=O)[C@H]1CC[C@H](C)CC1 | > 20 | > 20 | – |
| COC1CCN(C(=O)CN(c2cc(C#CC(C)(C)C)sc2C(=O)O)C(=O)[C@H]2CC[C@H](C)CC2)CC1 | > 20 | > 20 | – |
| CN1CCN(C(=O)CN(c2cc(C#CC(C)(C)C)sc2C(=O)O)C(=O)[C@H]2CC[C@H](C)CC2)CC1 | > 20 | > 20 | – |
| C[C@H](C(=O)N(C)C)N(c1cc(C#CC(C)(C)C)sc1C(=O)O)C(=O)[C@H]1CC[C@H](C)CC1 | > 20 | > 20 | – |
| CNC(=O)CN(c1cc(C#CC(C)(C)C)sc1C(=O)O)C(=O)[C@H]1CC[C@H](C)CC1 | > 20 | > 20 | – |
| CC(C)[C@@H](C(=O)N(C)C)N(c1cc(C#CC(C)(C)C)sc1C(=O)O)C(=O)[C@H]1CC[C@H](C)CC1 | > 20 | > 20 | – |
| CC(C)NC(=O)CN(c1cc(C#CC(C)(C)C)sc1C(=O)O)C(=O)[C@H]1CC[C@H](C)CC1 | > 20 | > 20 | – |
| CC(C)(C)C#Cc1cc(N(CC(=O)N2CCC(O)CC2)C(=O)[C@H]2CC[C@H](C)CC2)c(C(=O)O)s1 | > 20 | > 20 | – |
| CC(C)(C)C#Cc1cc(N(CC(=O)N2CCCCC2)C(=O)[C@H]2CC[C@H](C)CC2)c(C(=O)O)s1 | > 20 | > 20 | – |
| CN(C)C(=O)CN(c1cc(C#CC(C)(C)C)sc1C(=O)O)C(=O)[C@H]1CC[C@H](C)CC1 | > 20 | > 20 | – |
| COC[C@@H](C(=O)N(C)C)N(c1cc(C#CC(C)(C)C)sc1C(=O)O)C(=O)[C@H]1CC[C@H](C)CC1 | > 20 | > 20 | – |
| CC(C)(C)C#Cc1cc(N(CC(=O)N2CCCC2)C(=O)[C@H]2CC[C@H](C)CC2)c(C(=O)O)s1 | > 20 | > 20 | – |
